From ChEMBL document CHEMBL1201862, “PubChem BioAssay data set” (2004)
Calls of active or inactive are those of the source.

Columns and labels:
Vero = assay: host cell cytotoxicity of antiviral hits, dose response, cytotoxicity control for West Nile virus antiviral project, secondary assay (AID 1650); assay type: functional; conditions: Chlorocebus sabaeus
[1] = target: FAD-linked sulfhydryl oxidase ALR (Homo sapiens, UniProt P55789); assay: inhibitors of human ALR sulfhydryl oxidase, dose response, biochemical, H2O2 detection, luminescence, cherry-pick (AID 493248)
[2] = target: T1, Methionyl-tRNA synthetase, putative (Trypanosoma brucei brucei, UniProt Q38C91); assay type: functional, Trypanosoma brucei brucei strain 927/4 GUTat10.1
T1 sequence (Q38C91 whole entry): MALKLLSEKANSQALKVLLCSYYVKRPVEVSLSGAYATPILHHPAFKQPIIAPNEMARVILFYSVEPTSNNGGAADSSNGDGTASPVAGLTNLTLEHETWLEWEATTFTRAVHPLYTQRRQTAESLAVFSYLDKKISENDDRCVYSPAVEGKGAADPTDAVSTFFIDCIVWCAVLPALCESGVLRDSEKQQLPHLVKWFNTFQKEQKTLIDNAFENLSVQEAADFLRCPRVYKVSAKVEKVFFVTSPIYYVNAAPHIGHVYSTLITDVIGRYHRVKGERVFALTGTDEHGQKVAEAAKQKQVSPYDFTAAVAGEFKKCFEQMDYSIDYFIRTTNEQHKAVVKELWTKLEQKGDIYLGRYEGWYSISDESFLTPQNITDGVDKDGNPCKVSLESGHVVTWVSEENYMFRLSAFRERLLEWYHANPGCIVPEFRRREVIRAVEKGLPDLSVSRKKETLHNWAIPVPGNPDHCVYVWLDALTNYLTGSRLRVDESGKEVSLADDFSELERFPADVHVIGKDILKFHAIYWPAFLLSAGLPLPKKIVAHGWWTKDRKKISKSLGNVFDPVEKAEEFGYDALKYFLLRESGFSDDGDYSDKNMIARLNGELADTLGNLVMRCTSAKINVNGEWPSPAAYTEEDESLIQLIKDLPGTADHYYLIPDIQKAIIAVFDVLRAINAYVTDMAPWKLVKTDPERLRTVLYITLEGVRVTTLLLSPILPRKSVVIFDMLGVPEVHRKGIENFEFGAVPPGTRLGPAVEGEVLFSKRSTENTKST

[3] = Counterscreen for inhibitors of Trypanosoma brucei methionyl tRNA synthetase (MetRS): Luminescence-based cell-based high throughput dose response assay to identify compounds that are cytotoxic to Jurkat human T lymphocyte cells.; assay type: functional
[4] = target: T1, Methionyl-tRNA synthetase, putative; assay type: functional, Trypanosoma brucei brucei strain 927/4 GUTat10.1; remark: listed apart in the source
[5] = A549 cell cytotoxicity, dose response, cytotoxicity control, plate reader, cherry-pick, antagonist series (AID 743412); assay type: functional, cell-based
[6] = HepG2 cell cytotoxicity, dose response, cytotoxicity control, plate reader, cherry-pick, antagonist series (AID 743416); assay type: functional, cell-based
[7] = LGR2 antagonists, dose response, cell-based, HEK293, CRE-luciferase reporter, cherry pick, set 2 (AID 743343); assay type: functional;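 further: transfected cells were stimulated with diluted bursicon conditioned medium after compound addition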
[8] = MC4R antagonists, dose response, counter-screen for LGR2 antagonist project, cell-based, plate reader, cherry pick (AID 743444); assay type: functional;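 further: transfected HEK 293 cells stimulated with alpha-MSH peptide; potency of inhibitors of the alpha-MSH evoked signal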
[9] = HEK293 cell cytotoxicity, dose response, cytotoxicity control, plate reader, cherry-picked samples (AID 743446); assay type: functional, cell-based
Cytochrome P450 2D6 = Cytochrome P450 2D6 (Homo sapiens, UniProt P10635);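 further: CYP2D6 member of a cytochrome P450 panel assay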
Cytochrome P450 1A2 = target: T2, Cytochrome P450 1A2 (Homo sapiens, UniProt P05177);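 further: PubChem cytochrome P450 panel assay, CYP1A2 panel member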
T2 sequence (P05177 whole entry): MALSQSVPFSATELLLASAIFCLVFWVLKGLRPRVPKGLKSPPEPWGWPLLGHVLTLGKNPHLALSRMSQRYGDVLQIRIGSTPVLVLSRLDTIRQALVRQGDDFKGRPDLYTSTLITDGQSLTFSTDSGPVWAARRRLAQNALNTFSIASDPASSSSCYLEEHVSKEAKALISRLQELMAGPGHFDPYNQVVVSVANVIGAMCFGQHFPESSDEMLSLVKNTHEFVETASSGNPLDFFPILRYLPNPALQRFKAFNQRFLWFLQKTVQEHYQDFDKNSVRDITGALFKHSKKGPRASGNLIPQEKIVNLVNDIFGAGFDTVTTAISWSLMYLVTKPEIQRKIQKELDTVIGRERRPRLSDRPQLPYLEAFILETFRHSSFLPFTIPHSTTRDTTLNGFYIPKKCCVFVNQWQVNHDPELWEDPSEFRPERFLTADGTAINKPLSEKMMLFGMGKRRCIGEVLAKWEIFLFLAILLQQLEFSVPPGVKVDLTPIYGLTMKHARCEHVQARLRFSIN

Cytochrome P450 2C9 = Cytochrome P450 2C9 (Homo sapiens, UniProt P11712)
[10] = target: Beta-2 adrenergic receptor (Homo sapiens, UniProt P07550); assay: beta2AR agonists driving receptor internalization, dose response, cell-based, FAP fluorogen, flow cytometry, cherry pick 1 (AID 588763); assay type: functional
[11] = target: T3, Carboxy-terminal domain RNA polymerase II polypeptide A small phosphatase 1 (Homo sapiens, UniProt Q9GZU7); assay: inhibitors of CTDSP1, concentration-response testing, biochemical assay, absorbance-based, actives from ultra-high-throughput screening (AID 540297); assay type: functional
T3 sequence (Q9GZU7 whole entry): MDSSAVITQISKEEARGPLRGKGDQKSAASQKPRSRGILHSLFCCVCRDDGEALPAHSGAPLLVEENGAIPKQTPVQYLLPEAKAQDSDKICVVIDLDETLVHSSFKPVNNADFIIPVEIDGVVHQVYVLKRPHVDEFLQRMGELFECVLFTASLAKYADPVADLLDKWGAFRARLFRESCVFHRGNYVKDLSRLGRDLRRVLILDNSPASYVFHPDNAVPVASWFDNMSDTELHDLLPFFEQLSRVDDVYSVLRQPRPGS

[12] = HeLa 2N DNA content increase, dose response, cell-based, IC50 (AID 1117349); assay type: functional
[13] = HeLa 4N DNA content increase, dose response, cell-based, IC50 (AID 1117351); assay type: functional
[14] = cytotoxicity toward HT-29 cells – cell-based, CellTiter-Glo luminescence, IC50, dose response (AID 1117330); assay type: functional
[15] = target: T4, Calpain-2 catalytic subunit (Sus scrofa, UniProt P43367); assay: pig calpain II inhibitor potency, dose response, biochemical, fluorogenic peptide substrate (AID 1420); assay type: functional
T4 sequence (P43367 whole entry): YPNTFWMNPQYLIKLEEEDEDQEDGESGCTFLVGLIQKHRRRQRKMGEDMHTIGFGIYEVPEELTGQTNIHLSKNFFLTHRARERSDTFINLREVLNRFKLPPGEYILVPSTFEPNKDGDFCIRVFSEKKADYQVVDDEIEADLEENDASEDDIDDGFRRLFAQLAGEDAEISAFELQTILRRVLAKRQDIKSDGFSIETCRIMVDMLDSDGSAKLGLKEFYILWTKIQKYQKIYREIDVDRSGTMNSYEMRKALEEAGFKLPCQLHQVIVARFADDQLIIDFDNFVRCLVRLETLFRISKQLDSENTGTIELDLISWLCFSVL

Chain of FAD-linked sulfhydryl oxidase ALR (P55789 whole entry): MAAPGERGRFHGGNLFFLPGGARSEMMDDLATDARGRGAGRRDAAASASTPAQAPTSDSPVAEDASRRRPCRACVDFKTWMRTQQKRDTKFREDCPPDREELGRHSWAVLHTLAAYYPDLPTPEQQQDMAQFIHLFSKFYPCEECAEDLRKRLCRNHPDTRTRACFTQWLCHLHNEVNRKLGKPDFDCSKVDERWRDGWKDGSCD
Chain of Beta-2 adrenergic receptor (P07550 whole entry, the tested form may be a part): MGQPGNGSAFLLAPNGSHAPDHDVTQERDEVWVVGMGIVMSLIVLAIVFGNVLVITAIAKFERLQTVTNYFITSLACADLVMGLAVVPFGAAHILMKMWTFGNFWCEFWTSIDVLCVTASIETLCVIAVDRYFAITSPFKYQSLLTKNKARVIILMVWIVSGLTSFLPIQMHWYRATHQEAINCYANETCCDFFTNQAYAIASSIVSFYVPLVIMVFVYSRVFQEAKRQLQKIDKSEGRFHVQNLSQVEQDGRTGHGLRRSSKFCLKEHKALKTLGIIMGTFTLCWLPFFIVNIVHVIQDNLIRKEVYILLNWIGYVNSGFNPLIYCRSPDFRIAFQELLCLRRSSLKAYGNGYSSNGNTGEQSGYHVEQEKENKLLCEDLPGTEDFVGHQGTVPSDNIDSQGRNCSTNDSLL
Chain of Cytochrome P450 2C9 (P11712 whole entry): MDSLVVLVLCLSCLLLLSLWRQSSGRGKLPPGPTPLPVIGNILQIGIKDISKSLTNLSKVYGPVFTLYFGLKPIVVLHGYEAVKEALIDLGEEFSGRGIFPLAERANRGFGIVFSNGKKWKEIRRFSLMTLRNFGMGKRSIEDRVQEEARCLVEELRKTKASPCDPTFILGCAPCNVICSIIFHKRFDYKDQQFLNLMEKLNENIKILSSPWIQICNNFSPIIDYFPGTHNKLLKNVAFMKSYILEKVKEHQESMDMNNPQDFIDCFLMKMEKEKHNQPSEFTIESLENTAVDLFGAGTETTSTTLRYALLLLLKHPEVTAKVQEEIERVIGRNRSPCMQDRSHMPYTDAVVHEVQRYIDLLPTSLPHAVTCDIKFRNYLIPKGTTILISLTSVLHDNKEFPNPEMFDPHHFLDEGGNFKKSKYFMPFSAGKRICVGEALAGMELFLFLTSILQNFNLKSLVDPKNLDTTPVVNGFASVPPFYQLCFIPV
Chain of Cytochrome P450 2D6 (P10635 whole entry): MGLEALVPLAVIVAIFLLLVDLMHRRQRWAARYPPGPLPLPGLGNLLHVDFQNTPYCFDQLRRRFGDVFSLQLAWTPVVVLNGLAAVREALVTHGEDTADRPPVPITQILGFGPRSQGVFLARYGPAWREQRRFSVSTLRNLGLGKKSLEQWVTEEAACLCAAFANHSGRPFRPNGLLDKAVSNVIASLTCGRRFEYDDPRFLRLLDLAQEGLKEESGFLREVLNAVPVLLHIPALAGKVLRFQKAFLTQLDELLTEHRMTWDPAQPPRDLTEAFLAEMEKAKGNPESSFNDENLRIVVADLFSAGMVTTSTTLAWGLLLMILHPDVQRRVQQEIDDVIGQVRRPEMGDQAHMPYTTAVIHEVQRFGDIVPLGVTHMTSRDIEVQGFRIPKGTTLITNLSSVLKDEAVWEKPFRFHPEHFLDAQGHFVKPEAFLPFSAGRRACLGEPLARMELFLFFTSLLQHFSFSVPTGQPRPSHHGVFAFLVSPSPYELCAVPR

## CCCN(CCC)CCCNC(=O)c1cc2cc3ccc(Cl)cc3nc2o1
Vero
  CC50: > 100 µM (active)

## O=C1CCCN1CCCNc1ncnc2c1[nH]c1ccc(Cl)cc12
[1]
  AC50: 0.943 µM (active)
[2]
  IC50: 8.28 µM (active)
[3]
  IC50: 83.3 µM (inactive)
[4]
  IC50: 4.36 µM (active)

## C[C@H]1CN([C@@H](C)CO)C(=O)Cc2cc(NS(=O)(=O)c3ccc(Cl)cc3)ccc2O[C@@H]1CN(C)Cc1ccccc1
[5]
  AC50: 13.1 µM (active)
[6]
  AC50: 16.9 µM (active)
[7]
  AC50: 31.5 µM (active)
[8]
  AC50: 38.7 µM (active)
[9]
  AC50: 29.6 µM (active)

## Cc1ccccc1Cn1ccc(NC(=O)c2nn(C)cc2[N+](=O)[O-])n1
Vero
  CC50: 12.1 µM (active)

## O=[N+]([O-])c1ccc(Cl)c(/C=N/N2CCN(Cc3ccccc3Cl)CC2)c1
Cytochrome P450 2D6
  AC50: 7.94 µM (inconclusive)
Cytochrome P450 1A2
  AC50: 2.51 µM (inconclusive)
Cytochrome P450 2C9
  AC50: inconclusive

## O=C(CCN1C(=O)/C(=C/c2ccccc2Cl)SC1=S)N1CCOCC1
Vero
  CC50: 67.3 µM (active)

## CC1(C)Cc2c(c(-c3ccco3)nc3sc4c(NCC5CCCO5)ncnc4c23)CO1 (stereo unspecified)
[10]
  EC50: 0.0919 µM (active)

## CCNc1nc(NCC)n2c(SCC(=O)Nc3ccc(OC(F)F)cc3)nnc2n1
[11]
  IC50: 9.83 µM (active)

## CC(C)=CCNc1ncnc2c1ncn2[C@@H]1O[C@H](CO)[C@@H](O)[C@H]1O [RIBOPRINE]
[12]
  IC50: > 10 µM (inactive)
[13]
  IC50: > 10 µM (inactive)
[14]
  IC50: > 20 µM (inactive)

## COC(=O)c1ccc2nc(NC(=O)C(C)(C)C)sc2c1
[15]
  IC50: 24.1 µM (not active)
[6]
  AC50: > 52 µM (inactive)
[7]
  AC50: 5.77 µM (active)
[8]
  AC50: 5.69 µM (active)
[9]
  AC50: > 52 µM (inactive)

## CCc1ccc(Nc2nnc(SCC(=O)NC(=O)CN3CCCC3=O)s2)cc1
[11]
  IC50: 15 µM (active)
